Read-outs that look alike come from different tables or passages of the source. Marks after values point to notes of the source that are not given here.
What was measured:
[1] = tested on: diet-induced obese (DIO) male Sprague Dawley rats; assay: DIO rat 4-week constant sc infusion: body weight; assay type: in vivo
Description: (§1) Various metabolic and PK parameters were evaluated.
(§2) Study Design. The Polypeptide Conjugates were tested relative to vehicle (50% DMSO in sterile water) and parent compounds alone and in combination (see Table 1).
(§3) Food intake and body weight were measured weekly. Body composition was assessed on day −1 and day 28 using an NMR instrument (Echo Medical Systems, Houston, Tex.). Adiposity (percent fat mass) was defined as the amount of fat mass relative to body weight (fat mass/body weight×100). Blood was collected via tail vein on day 14. On day 28 a sample of blood was drawn via the jugular vein and animals were euthanized by isoflurane overdose. Mini-pumps were immediately removed, animals were subjected to a brief NMR scan, and tissues were collected for future histological examination and preliminary toxicological assessment.
(§4) Statistical Analysis. Data were analyzed using one-way analysis of variance (ANOVA) with Newman-Keuls post-hoc comparisons. Significance was assumed for p<0.05. Graphs were generated using Prism 4 for Windows (Graphpad Software, San Diego, Calif.). All data points are expressed as mean±SEM.

[2] = tested on: NIH/Swiss female mice; assay: basal glucose lowering assay (Oral Glucose Tolerance Test; OGTT); assay type: in vivo, mouse; conditions: IP at t=-5 min, 4-hour fasted mice, glucose gavage […], blood glucose at t=30 minutes
Description: Polypeptide Conjugates and parent compounds were analyzed in an in vivo basal glucose lowering assay. This assay reflects the conjugate polypeptide's ability to enhance insulin-mediated glucose clearance of orally administered glucose challenge (Oral Glucose Tolerance Test; OGTT). The OGTT is used to diagnose diabetes, although the simpler fasting plasma glucose test, which measures a subject's plasma glucose level after fasting for at least eight hours, is preferred. The following procedure was used: Test compound at various concentrations was injected intraperitoneally (IP) at t=−5 min to 4-hour fasted NIH/Swiss female mice. Glucose gavage (1.5 g/kg) was given at t=0. Sample was taken at t=30 minutes as tail blood glucose using a OneTouch® Ultra® (LifeScan, Inc., Milpitas, Calif.). Significant effects were identified by ANOVA (p<0.05), followed by Dunnett's post test using GraphPad Prism version 4.00 for Windows (GraphPad Software, San Diego Calif.).

[3] = tested on: rats; assay: acute kaolin intake (pica, nausea) and chow intake in rats; assay type: in vivo, rat; conditions: 24 hr post injection
Description: To investigate possible nausea effects of the conjugate polypeptide, acute kaolin intake was measured in rats. Pica behavior (ingestion of dirt/clay) is a marker of nausea in rodents, typically associated with reduced food intake and weight loss. Pica can be assessed by measuring intake of the synthetic clay kaolin. […] Rats were acclimated to kaolin for 3 days as kaolin clay mixed in with regular chow. A 4 hr and a 24 hr baseline kaolin and chow intake were then measured. Subsequently, rats were fasted for approximately 16 hrs after which test compound was injected at the dose indicated below. At 24 hr post injection chow and kaolin consumption was measured.

[4] = tested on: male Sprague Dawley rats; assay: delay of gastric emptying (acetaminophen appearance in plasma); assay type: in vivo, rat; conditions: for Percent Inhibition of Gastric Emptying 4 hr / Percent Inhibition of Gastric Emptying 6 hr / Percent Inhibition of Gastric Emptying 8 hr: 1 nmol/kg single sc injection
Description: Polypeptide Conjugates and parent compounds were analyzed for their ability to delay gastric emptying in rats. […] Rats then received an oral gavage of 33 mg acetaminophen/1 ml Orablend (Paddock Laboratories, Inc., MN USA) at t=3.5 hr, 5.5 hr or 7.5 hr post-injection. Blood was collected for measurement of acetaminophen at 4 hr, 6 hr or 8 hr after SC injection. Gastric emptying was assessed by the appearance of acetaminophen in plasma 30 min after oral gavage.

[5] = molecular target: T1, amylin receptor (Homo sapiens, UniProt P30988); assay: binding selectivity for amylin receptor against the CGRP receptor
T1 sequence (P30988 25-474): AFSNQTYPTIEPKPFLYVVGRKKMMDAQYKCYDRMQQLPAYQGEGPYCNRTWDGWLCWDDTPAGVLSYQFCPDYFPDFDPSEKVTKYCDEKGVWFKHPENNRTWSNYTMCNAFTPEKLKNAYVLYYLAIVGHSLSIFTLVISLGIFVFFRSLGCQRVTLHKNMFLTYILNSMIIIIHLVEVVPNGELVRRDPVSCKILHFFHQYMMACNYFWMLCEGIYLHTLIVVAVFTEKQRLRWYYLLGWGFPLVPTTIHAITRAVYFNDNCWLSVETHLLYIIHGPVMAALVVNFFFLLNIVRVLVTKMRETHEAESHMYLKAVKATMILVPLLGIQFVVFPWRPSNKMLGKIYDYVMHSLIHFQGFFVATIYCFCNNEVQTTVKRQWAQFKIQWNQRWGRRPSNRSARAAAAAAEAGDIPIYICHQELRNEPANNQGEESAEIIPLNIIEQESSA

[6] = molecular target: T2, calcitonin receptors (Homo sapiens, UniProt P30988); assay: binding selectivity for calcitonin receptors against the CGRP receptor
T2 sequence (P30988 25-474): T1 sequence (P30988 25-474)

[7] = tested on: diet-induced obese (DIO) male Sprague Dawley rats; assay: DIO rat 4-week constant sc infusion: cumulative food intake; assay type: in vivo; conditions: highest dose tested (100 nmol/kg/d)
Description: as §1, §2, §3, §4

[8] = tested on: diet-induced obese (DIO) male Sprague Dawley rats; assay: DIO rat 4-week sc infusion: body composition by NMR; assay type: in vivo
Description: as §1, §2, §3, §4
To correct for loss of body weight, reductions in fat and lean mass were adjusted for terminal body weight to calculate the change in adiposity (percent fat mass) and change in percent lean mass.

[9] = tested on: diet-induced obese (DIO) male Sprague Dawley rats; assay: DIO rat 4-week sc infusion: hormone and metabolite analyses (HbA1c, insulin, lipids, glucose); assay type: in vivo; conditions: for Insulin 14 day / Insulin 28 day: fed state plasma; for Glucose / HDL cholesterol / Total cholesterol / Triglycerides: plasma after 28 days
Description: as §1, §2, §3, §4
(§5) Hormone and metabolite analyses. Plasma levels of study drug were measured at day 14 and termination by an ELISA. Whole blood percent hemoglobin A1c (% HbA1c), plasma triglyceride, total cholesterol, HDL cholesterol and plasma glucose at day 14 and at termination were measured using an Olympus bioanalyzer (Olympus America Diagnostics). Plasma insulin levels at day 14 and at termination were analyzed by an ELISA kit (Rat/Mouse Insulin ELISA, Linco Diagnostics).
Plasma parameters. The effects of the parent and Polypeptide Conjugate compounds on the following plasma parameters were determined: percent hemoglobin A1c (HbA1c), fed state plasma insulin, and concentration of the Polypeptide Conjugate in plasma, at 14 and 28 days.

[10] = DIO rats, sc infusion
Description: as §1, §2, §3, §5

[11] = tested on: ob/ob mice; assay: 28 days of exposure in ob/ob mice (obese and diabetic); assay type: in vivo, mouse
[12] = in vivo blood calcium lowering (amylin agonist property)
[13] = acute reduction of food intake; assay type: in vivo
[14] = human plasma, 5 hr incubation; detection limit 10%
[15] = human kidney brush border membrane matrices, 5 hr incubation; detection limit 10%

## HGEGTFTSDLSKQMEEEAVRLFIEWLKNGGGKCNTATCVLGRLSQELHRLQTYPRTNT GSNTY-NH2 [Cmpd 3A]
[1]; 100 nmol/kg/d of previous reference conjugates
  weight loss: ~20%
[2]
  ED50 in OGTT: 6 nmol/kg
[3]; 15 nmol/kg/d
  Inhibited food intake: Yes ~20%
  Kaolin intake: 0.5 g
[4]
  Percent Inhibition of Gastric Emptying 4 hr: 33
  Percent Inhibition of Gastric Emptying 6 hr: 0
  Percent Inhibition of Gastric Emptying 8 hr: 0
[4]; at the time point and doses tested
  inhibition of gastric emptying: did not significantly inhibit gastric emptying
[5]
  selectivity for amylin receptor against the CGRP receptor: > 100 fold
[6]
  selectivity for calcitonin receptors against the CGRP receptor: > 280 fold

## HGEGTFTSDLSKQLEEEAVRLFIEWLKQGGPSKEIISGGGKCNTATCVLGRLSQELHRLQ TYPRTNTGSNTY-NH2 [Cmpd 2A]
[1]; DIO rats
  potency at reducing body weight via sustained infusion relative to Cmpd 3A: several fold more potent
[1]; DIO rats, sc infusion, 100 nmol/kg/d
  four week vehicle-corrected weight loss: −31.5±2.7%
[1]; DIO rats, sc infusion, 100 nmol/kg/d group
  Maximal weight loss: −27.8±5.3%
[1]; DIO rats, sc infusion, doses of Table 1 (conjugates 3, 10, 30 and 100 nmol/kg/d), p<0.05
  body weight over the 28 day treatment relative to vehicle: dose-dependently reduced body weight significantly
[7]
  total food intake relative to single parent peptide administration: significantly reduced
[8]; 3 nmol/kg/d, day 28
  Terminal Fat Mass: 71.4 ± 12.9^a,b g
  Terminal Lean Mass: 330.5 ± 7.3^a,b g
[8]; 10 nmol/kg/d, day 28
  Terminal Fat Mass: 35.8 ± 7.7^c,d g
  Terminal Lean Mass: 280.6 ± 22.6^b g
[8]; 30 nmol/kg/d, day 28
  Terminal Fat Mass: 32.4 ± 3.8^c,d g
  Terminal Lean Mass: 306.5 ± 13.2^a,b g
[8]; 100 nmol/kg/d, day 28
  Terminal Fat Mass: 12.7 ± 4.3^d g
  Terminal Lean Mass: 277.8 ± 17.8^b g
  change in adiposity (percent fat mass): −12.2±1.3%
[8]; all doses of Table 1, day 28
  adiposity compared to vehicle controls: significantly reduced
[8]; all doses, day 28
  percent lean mass relative to vehicle controls: did not alter percent lean mass
[9]; 3 nmol/kg/day
  HbA1c 14 day: 4.9 ± 0.1%
  Insulin 14 day: 1.8 ± 0.6^b ng/mL
  HbA1c 28 day: 4.6 ± 0.1%
  Insulin 28 day: 2.2 ± 0.9 ng/mL
  Glucose: 132 ± 9 mg/dL
  HDL cholesterol: 33 ± 2 mg/dL
  Total cholesterol: 116 ± 8 mg/dL
  Triglycerides: 295 ± 75^b mg/dL
[9]; 10 nmol/kg/day
  HbA1c 14 day: 4.9 ± 0.1^b %
  Insulin 14 day: 1.5 ± 0.2^b ng/mL
  HbA1c 28 day: 4.6 ± 0.1%
  Insulin 28 day: 1.0 ± 0.2 ng/mL
  Glucose: 115 ± 6 mg/dL
  HDL cholesterol: 33 ± 5 mg/dL
  Total cholesterol: 115 ± 14 mg/dL
  Triglycerides: 146 ± 41^b mg/dL
[9]; 30 nmol/kg/day
  HbA1c 14 day: 4.8 ± 0.1%
  Insulin 14 day: 1.8 ± 0.5^b ng/mL
  HbA1c 28 day: 4.6 ± 0.1%
  Insulin 28 day: 0.8 ± 0.1 ng/mL
  Glucose: 111 ± 2 mg/dL
  HDL cholesterol: 32 ± 1 mg/dL
  Total cholesterol: 112 ± 4 mg/dL
  Triglycerides: 128 ± 25^b mg/dL
[9]; 100 nmol/kg/day
  HbA1c 14 day: 4.8 ± 0.1%
  Insulin 14 day: 1.2 ± 0.2^b ng/mL
  HbA1c 28 day: 4.5 ± 0.1%
  Insulin 28 day: 0.7 ± 0.1 ng/mL
  Glucose: 110 ± 4 mg/dL
  HDL cholesterol: 30 ± 1 mg/dL
  Total cholesterol: 107 ± 3 mg/dL
  Triglycerides: 139 ± 17^b mg/dL
[10]; 3 nmol/kg/day
  plasma drug level (Cmpd 2A or Cmpd 1A) 14 day: 15 ± 6^a ng/mL
  plasma drug level (Cmpd 2A or Cmpd 1A) 28 day: 65 ± 35^a ng/mL
[10]; 10 nmol/kg/day
  plasma drug level (Cmpd 2A or Cmpd 1A) 14 day: 48 ± 16^a ng/mL
  plasma drug level (Cmpd 2A or Cmpd 1A) 28 day: 345 ± 67^a ng/mL
[10]; 30 nmol/kg/day
  plasma drug level (Cmpd 2A or Cmpd 1A) 14 day: 65 ± 7^a ng/mL
  plasma drug level (Cmpd 2A or Cmpd 1A) 28 day: 540 ± 232^a ng/mL
[10]; 100 nmol/kg/day
  plasma drug level (Cmpd 2A or Cmpd 1A) 14 day: 284 ± 79^b ng/mL
  plasma drug level (Cmpd 2A or Cmpd 1A) 28 day: 1985 ± 717^b ng/mL
[2]
  ED50 in OGTT: 1.4 nmol/kg
[3]; 30 nmol/kg/d
  Inhibited food intake: Yes ~68%
  Kaolin intake: 0.3 g
[4]
  Percent Inhibition of Gastric Emptying 4 hr: 79
  Percent Inhibition of Gastric Emptying 6 hr: 49
  Percent Inhibition of Gastric Emptying 8 hr: 4
[11]
  HbA1c: HbA1c reduction
  body weight: body weight loss
  fasted blood glucose: fasted blood glucose-lowering
[12]
  blood calcium: lower blood calcium
[13]
  potency at reducing food intake acutely compared with Cmpd 3A: more potent
[14]
  metabolites detected: No metabolites were detected
[15]
  metabolites detected: No metabolites were detected
